Source: patent publication US11952364B2, “TRK inhibitors useful as anticancer drugs” (TYLIGAND BIOSCIENCE (SHANGHAI) LIMITED, priority 2018, dated 2024)
Read-outs that look alike come from different tables or passages of the source.

Key:
[1] = system: KM12 cells; assay: Proliferation of KM12 cells (CellTiter-Glo); format: cell-based, human; conditions: read-out: KM-12, IC50
From the text: KM12 is a human colon cancer cell line in which NTRK1 is highly expressed, and gene fusion occurs with TPM3 to form TPM3-NTRK1. • [Test method]: Promega's CellTiter-Glo® Luminescent Cell Viability Assay kit was used to evaluate the inhibitory activity of the compounds on the proliferation of KM12 cells. • [Instrument]: Spectramax M3 multifunctional microplate reader from Molecular Devices. • [Test materials]: KM12 cell line (ATCC, item number CRL-12496), 96-well transparent flat-bottomed black-walled cell culture plate (Corning, item number #3603), RPMI-1640 media (GE, cat #SH30027.01), Fetal Bovine Serum FBS (Thermo Fisher, cat #10099-141), CellTiter-Glo® Luminescent Cell Viability Assay Kit (Promega, cat #G7572), PBS (Solarbio, cat #P1020), Trypsin (Thermo Fisher, cat #25200072), DMSO (Sigma, cat #D2650). • [Experimental procedure]: When resuscitating KM12 cells, the freezing tube was quickly shaken in a 37° C. water bath to melt within 1 minute. The thawed cell suspension was mixed uniformly with RPMI1640 medium containing 10% FBS, centrifuged at 1000 rpm for 5 minutes, and the supernatant discarded. 5 mL of complete medium (RPMI1640 medium with 10% FBS) was taken to resuspend the cell pellets, charged into a cell culture flask with a bottom area of 25 cm^2, and incubated in a cell incubator at 37° C., 95% humidity and 5% CO2. Cells were allowed to passage when the cell confluence rate reached about 80%. For cell passage, the old medium was discarded, and the cells were washed twice with PBS, and 0.5 mL trypsin was added to digest the cells. Upon dispersing into single cells and exfoliating from the bottom of the cell culture flask, 4.5 mL of new complete medium was added to terminate the digestion. After pipetting the cell suspension evenly, 1/5 of the cell suspension was kept and added with 4 mL of new complete medium, and after pipetting evenly, the cell flask was placed in the cell incubator for further culturing. Cell plating was performed when the cell confluence rate reached about 80% again. For cell plating, 1/5 of the cell suspension was kept for further culturing as in the cell passage method, and the remaining 4/5 of the cell suspension was placed in a 15 mL centrifuge tube, detected for cell viability by Trypan blue exclusion method to ensure that cell viability was above 90%. A cell suspension with a density of 3.33×10^4 viable cells/mL was prepared with complete medium, and 90 μL of such cell suspension was added to a 96-well cell culture plate to obtain a cell density of 3000 viable cells/mL in the cell culture plate. A control group containing no cells, no compound and only complete medium (i.e. culture medium control) and a control group containing no compound but containing cells (i.e. cell control) were set. The cell plate was placed in a cell incubator overnight.
The 10 mM compound stock solution in DMSO was first serially diluted with DMSO at a dilution factor of 3.16 times, to obtain 9 concentrations, and the 10th concentration was set as DMSO control without compound. Then, PBS was used to dilute the DMSO solutions of compounds of different concentrations, at a dilution factor of 100 times, so that the DMSO concentration in the compound solution of each concentration was 1%. Finally, 10 μL of each of the above solutions was added to the corresponding cell culture plate, so that the initial compound concentration was 10 μM, with the remaining concentrations being successively diluted at a dilution factor of 3.16 times, and the DMSO content in the cell culture plate was 0.1%.
The cell plate was placed in a cell incubator and cultured for 72 hours. For endpoint detection, the CellTiter-Glo reagent was melted, and the cell plate was moved to room temperature to equilibrate for 30 minutes, added with 100 μL of CellTiter-Glo for each well, and shaken on an orbital shaker for 5 minutes to fully lyse the cells. […]

[2] = system: Ba/F3 ETV6-NTRK3-G696C cells; assay: Proliferation of Ba/F3 ETV6-NTRK3-G696C cells (CellTiter-Glo); format: cell-based, mouse; conditions: Mus musculus, BaF3, Table 7-2; separate test; read-out: Ba/F3 ETV6-NTRK3-G696C, IC50
From the text: Ba/F3 ETV6-NTRK3-G696C is a stable transgenic cell line constructed by KYinno Biotechnology Co., Ltd. on mouse primary B cell Ba/F3 wherein NTRK3 is highly expressed with a mutation of G at position […] to C and fused with ETV6 to form ETV6-NTRK3. • [Test method]: Promega's CellTiter-Glo® Luminescent Cell Viability Assay kit was used to evaluate the inhibitory activity of the compounds on the proliferation of Ba/F3 ETV6-NTRK3-G696C cells. • [Instrument]: Spectramax M3 multifunctional microplate reader from Molecular Devices. • [Test materials]: Ba/F3 ETV6-NTRK3-G696C cell line (constructed by KYinno Biotechnology Co., Ltd. (Beijing)), 96-well transparent flat-bottomed black-walled cell culture plate (Corning, cat #3603), RPMI-1640 media (GE, product number #SH30027.01), fetal bovine serum FBS (Thermo Fisher, cat #10099-141), CellTiter-Glo® Luminescent Cell Viability Assay kit (Promega, cat #G7572), PBS (Solarbio, cat #P1020), DMSO (Sigma, cat #D2650). • [Experimental procedure]: When resuscitating Ba/F3 ETV6-NTRK3-G696C cells, • the freezing tube was quickly shaken in a 37° C. water bath to melt within 1 minute. The thawed cell suspension was mixed uniformly with RPMI1640 medium containing 10% FBS, centrifuged at 1000 rpm for 5 minutes, and the supernatant discarded. 5 mL of complete medium (RPMI1640 medium with 10% FBS) was taken to resuspend the cell pellets, charged into a cell culture flask with a bottom area of 25 cm^2, and incubated in a cell incubator at 37° C., 95% humidity and 5% CO2. Cells were allowed to passage when the number of cells reached about 10^6 cells/mL. For cell passage, the old cell suspension was directly pipetted evenly, 1/5 of the cell suspension was kept, 4 mL of new complete medium was added, after pipetting evenly, the cell flask was placed in the cell incubator for further culturing. Cell plating was performed when the number of cells reached about 10^6 cells/mL again. For cell plating, 1/5 of the cell suspension was kept for further culturing as in the cell passage method, and the remaining 4/5 of the cell suspension was placed in a 15 mL centrifuge tube, detected for cell viability by Trypan blue exclusion method to ensure that cell viability was above 90%. A cell suspension with a density of 5.56×10^4 viable cells/mL was prepared with complete medium, and 90 μL of such cell suspension was added to a 96-well cell culture plate to obtain the cell density of 5000 viable cells/mL in the cell culture plate. A control group containing no cells, no compound and only complete medium (i.e. culture medium control) and a control group containing no compound but containing cells (i.e. cell control) were set. The cell plate was placed in a cell incubator overnight. The 10 mM compound stock solution in DMSO was first serially diluted with DMSO at a dilution factor of 3.16 times, to obtain 9 concentrations, and the 10th concentration was set as DMSO control without compound. Then, PBS was used to dilute the DMSO solutions of compounds of different concentrations, at a dilution factor of 100 times, so that the DMSO concentration in the compound solution of each concentration was 1%. Finally, 10 μL of each of the above solutions was added to the corresponding cell culture plate, so that the initial compound concentration was 10 μM, with the remaining concentrations being successively diluted at a dilution factor of 3.16 times, and the DMSO content in the cell culture plate was 0.1%. The cell plate was placed in a cell incubator and cultured for 72 hours. For endpoint detection, the CellTiter-Glo reagent was melted, and the cell plate was moved to room temperature to equilibrate for 30 minutes, added with 100 μL of CellTiter-Glo for each well, and shaken on an orbital shaker for 5 minutes to fully lyse the cells. […]

[3] = system: MKN45 cells; assay: Proliferation of MKN45 cells; format: cell-based; conditions: Homo sapiens, MKN-45; Table 8
Description: MKN45 is a human poorly differentiated gastric cancer cell line with high MET expression. Cell proliferation experiments were performed according to literature methods (Zhang, D. et al. Bioorg. Med. Chem. 2013, 21, 6804; Riss, T. L.; Moravec, R. A.; Niles, A. L.; et al. Cell Viability Assays 2013 May 1 [Updated 2016 Jul. 1]. In: Sittampalam, G. S.; Grossman, A.; Brimacombe, K.; et al., editors. Assay Guidance Manual [Internet]. Bethesda (MD): Eli Lilly & Company and the National Center for Advancing Translational Sciences; 2004-. Available from: https://www.ncbi.nlm.nih.gov/books/NBK144065/).

[4] = Homo sapiens, KM12, Table 1-2, separate test

IC50 [2] [nM]	SMILES	IC50 [1, 4] [nM]	further results
	CN1CCN(c2ccc(C(=O)Nc3n[nH]c4ccc(Cc5cc(F)cc(F)c5)cc34)c(NC3CCOCC3)c2)CC1 [RXDX-101, reference compound]		IC50 ([1]; Homo sapiens, KM12, 72 h, Table 1, 72 hours): 5.1 nM
	N.N.[Cl][Pt][Cl] [Cisplatin, reference compound]		IC50 ([1]; Table 1, 72 hours): 27300 nM
3	CCn1ncc2cc(Oc3ccc(NC(=O)c4ccc(OCC(F)(F)F)n(-c5ccc(F)cc5)c4=O)cc3F)c(-c3cn[nH]c3)cc21 [Example 27, N-(3-fluoro-4-(1-ethyl-6-(1H-pyrazol-4-yl)-1H-indazol-5-yloxy)phenyl)-1-(4-fluorophenyl)-6-(2,2,2-trifluoroethoxy)-2-oxo-1,2-dihydropyidine-3-carboxamide]		
3.7	Cn1ncc2cc(Oc3ccc(NC(=O)c4ccc(OCC(F)(F)F)n(-c5ccc(F)cc5)c4=O)cc3F)c(-c3cn[nH]c3)cc21 [Example 17, N-(3-fluoro-4-(1-methyl-6-(1H-pyrazol-4-yl)-1H-indazol-5-yloxy)phenyl)-1-(4-fluorophenyl)-6-(2,2,2-trifluoroethoxy)-2-oxo-1,2-dihydropyidine-3-carboxamide]	19	IC50 [3]: 15 nM
6.3	CCn1ncc2cc(Oc3ccc(NC(=O)c4ccc(OC5CC5)n(-c5ccc(F)cc5)c4=O)cc3F)c(-c3cn[nH]c3)cc21 [Example 25, N-(3-fluoro-4-(1-ethyl-6-(1H-pyrazol-4-yl)-1H-indazol-5-yloxy)phenyl)-1-(4-fluorophenyl)-6-cyclopropoxy-2-oxo-1,2-dihydropyridine-3-carboxamide]	29	
